The values that follow come from US10155259B2 (Merck Sharp & Dohme B.V., priority 2011, dated 2018).

pIC50: −log10 of the molar value.

For this test, the target named is T1, human FSH receptor (Homo sapiens, UniProt P23945).
T1 construct: expressed in transfected cells; host or cells: CHO cells, stably transfected; cotransfected with CRE-luciferase reporter
T1 sequence (P23945 18-695): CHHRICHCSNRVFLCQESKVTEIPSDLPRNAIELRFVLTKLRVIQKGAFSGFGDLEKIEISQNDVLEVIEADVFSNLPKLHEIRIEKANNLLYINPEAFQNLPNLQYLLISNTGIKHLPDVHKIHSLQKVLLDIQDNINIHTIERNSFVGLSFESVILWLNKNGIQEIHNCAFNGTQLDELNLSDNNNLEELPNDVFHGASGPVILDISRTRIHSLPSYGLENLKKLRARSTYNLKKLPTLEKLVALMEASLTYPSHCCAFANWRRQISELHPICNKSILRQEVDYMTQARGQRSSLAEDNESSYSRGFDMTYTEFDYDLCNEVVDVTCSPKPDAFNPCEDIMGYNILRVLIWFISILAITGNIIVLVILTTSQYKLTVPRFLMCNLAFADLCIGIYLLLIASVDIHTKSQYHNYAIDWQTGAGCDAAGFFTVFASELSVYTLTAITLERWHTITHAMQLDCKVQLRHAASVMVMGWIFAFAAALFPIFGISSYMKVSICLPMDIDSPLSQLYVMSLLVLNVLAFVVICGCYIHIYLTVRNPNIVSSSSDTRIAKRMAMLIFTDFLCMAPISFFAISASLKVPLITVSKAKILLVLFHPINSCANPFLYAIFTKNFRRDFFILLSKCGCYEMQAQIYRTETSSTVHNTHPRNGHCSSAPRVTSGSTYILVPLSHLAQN
As to the kind of experiment: Antagonistic activity of compounds at the human FSH receptor expressed in CHO cells (CRE-luciferase reporter). The following applies: CHO cells stably transfected with human FSH receptor and CRE/luciferase reporter; together with 49 μM recFSH; 4 hours incubation; 1% DMSO; read-out: IC50 (concentration of test compound causing half-maximal inhibition of the maximally attainable inhibition of the luciferase stimulation). The class given is cell-based. As to the method:
Antagonistic Activity of Compounds at the Human FSH Receptor Expressed in CHO Cells
Antagonistic activity of the compounds at the human FSH receptor was determined in Chinese Hamster Ovary (CHO) cells stably transfected with the human FSH receptor and cotransfected with a cAMP responsive element (CRE)/promotor directing the expression of a firefly luciferase reporter gene. Binding of the compounds to the Gs protein-coupled FSH receptor will result in an increase of cAMP, which in turn will induce an increased transactivation of the luciferase reporter. The cells (7,500 cells/well of a 384 well plate) were incubated in Dulbecco' minimal essential F12 modified medium (Invitrogen), supplemented with 1 μg/ml bovine insulin, 5 μg/ml human apo-transferrin, 100 U/ml penicillin G and 100 μg/ml streptomycin with the test compounds (concentration between 0.316 nM and 10.0 μM) in duplicate together with […] (which, at this concentration in the absence of test compound, induces 80% of the maximal luciferase stimulation) in a humidified atmosphere (95%) at 5-7% CO2 and 37° C. The final concentration of DMSO was 1%. After 4 hours of incubation, plates were allowed to adjust to room temperature for 1 hour. Then, SteadyLite (PerkinElmer) solution was added to the wells and cells were allowed to lyse for at least 1 hour at room temperature. Subsequently, luciferase activity was measured in a luminescence counter. The signal is expressed as counts per second (cps). The IC50 (concentration of test compound causing half-maximal (50%) inhibition of the maximally attainable inhibition of the luciferase stimulation by the compound) and efficacy of the compounds were determined using the software program MathIQ (version 2.3, ID Business Solutions Limited).
In general terms: In a reporter assay the amount or activity of a reporter protein is the signal.
As for `COc1cc2c(cc1-c1cnn(C)c1)-c1cc(C(=O)N[C@@H](CO)Cc3c[nH]c4ccccc34)c(-c3cccc(F)c3)n1CC2` [Example 52, (R)-3-(3-fluorophenyl)-N-(1-hydroxy-3-(1H-indol-3-yl)propan-2-yl)-8-methoxy-9-(1-methyl-1H-pyrazol-4-yl)-5,6-dihydropyrrolo[2,1-a]isoquinoline-2-carboxamide], the pIC50 is over 7.00.

In the case of `COc1cc2c(c(OC)c1OC)-c1cc(C(=O)N[C@@H](CO)Cc3c[nH]c4ccccc34)c(-c3ccccc3)n1CC2` [Example 63, (R)—N-(1-hydroxy-3-(1H-indol-3-yl)propan-2-yl)-8,9,10-trimethoxy-3-phenyl-5,6-dihydropyrrolo[2,1-a]isoquinoline-2-carboxamide], the pIC50 was over 7.00.

As for `COc1cc2c(cc1OC)-c1cc(C(=O)N[C@@H](CO)Cc3c[nH]c4ccccc34)c(-c3cccc(F)c3)n1CC2` [Example 10, (R)-3-(3-fluorophenyl)-N-(1-hydroxy-3-(1H-indol-3-yl)propan-2-yl)-8,9-dimethoxy-5,6-dihydropyrrolo[2,1-a]isoquinoline-2-carboxamide], the pIC50 was over 7.00.

`COc1cc2c(cc1OC(C)C)-c1cc(C(=O)N[C@@H](CO)Cc3c[nH]c4ccccc34)c(C=C(C)C)n1CC2` [Example 23, (R)—N-(1-hydroxy-3-(1H-indol-3-yl)propan-2-yl)-9-isopropoxy-8-methoxy-3-(2-methylprop-1-enyl)-5,6-dihydropyrrolo[2,1-a]isoquinoline-2-carboxamide]: the pIC50 is over 7.00.

On to `COc1cc2c(cc1OC)-c1cc(C(=O)N[C@@H](CO)Cc3c[nH]c4ccccc34)c(-c3cccs3)n1CC2` [Example 7, (R)—N-(1-hydroxy-3-(1H-indol-3-yl)propan-2-yl)-8,9-dimethoxy-3-(thiophen-2-yl)-5,6-dihydropyrrolo[2,1-a]isoquinoline-2-carboxamide], for which the pIC50 was over 7.00.

Turning to `C=CCOc1cc2c(cc1OC)CCn1c-2cc(C(=O)N[C@@H](CO)Cc2c[nH]c3ccccc23)c1-c1cccc(F)c1` [Example 32, (R)-9-(allyloxy)-3-(3-fluorophenyl)-N-(1-hydroxy-3-(1H-indol-3-yl)propan-2-yl)-8-methoxy-5,6-dihydropyrrolo[2,1-a]isoquinoline-2-carboxamide], the pIC50 was 6.00 to 7.00.

`COc1cc2c(cc1-c1cnn(C)c1)-c1cc(C(=O)N[C@@H](CO)Cc3c[nH]c4ccccc34)c(-c3cccs3)n1CC2` [Example 55, (R)—N-(1-hydroxy-3-(1H-indol-3-yl)propan-2-yl)-8-methoxy-9-(1-methyl-1H-pyrazol-4-yl)-3-(thiophen-2-yl)-5,6-dihydropyrrolo[2,1-a]isoquinoline-2-carboxamide]: the pIC50 was over 7.00.

Take `CCCC(C)Oc1cc2c(cc1OC)CCn1c-2cc(C(=O)N[C@@H](CO)Cc2c[nH]c3ccccc23)c1-c1cccc(F)c1` (stereo partly drawn) [Example 37, 3-(3-fluorophenyl)-N—((R)-1-hydroxy-3-(1H-indol-3-yl)propan-2-yl)-8-methoxy-9-(pentan-2-yloxy)-5,6-dihydropyrrolo[2,1-a]isoquinoline-2-carboxamide]: the pIC50 is over 7.00.

Turning to `COc1cc2c(cc1C(=O)N1CCOCC1)-c1cc(C(=O)N[C@@H](CO)Cc3c[nH]c4ccccc34)c(-c3cccc(F)c3)n1CC2` [Example 47, (R)-3-(3-fluorophenyl)-N-(1-hydroxy-3-(1H-indol-3-yl)propan-2-yl)-8-methoxy-9-(morpholine-4-carbonyl)-5,6-dihydropyrrolo[2,1-a]isoquinoline-2-carboxamide], the pIC50 is 6.00 to 7.00.

For `COc1cc2c(cc1-c1cn[nH]c1)-c1cc(C(=O)N[C@@H](CO)Cc3c[nH]c4ccccc34)c(-c3cccs3)n1CC2` [Example 59, (R)—N-(1-hydroxy-3-(1H-indol-3-yl)propan-2-yl)-8-methoxy-9-(1H-pyrazol-4-yl)-3-(thiophen-2-yl)-5,6-dihydropyrrolo[2,1-a]isoquinoline-2-carboxamide], the pIC50 was over 7.00.

Consider `COc1cc2c(cc1OC)-c1nc(C(=O)N[C@@H](CO)Cc3c[nH]c4ccccc34)c(-c3ccccc3F)n1CC2` [Example 67, 3-(2-fluorophenyl)-N—((R)-1-hydroxy-3-(1H-indol-3-yl)propan-2-yl)-8,9-dimethoxy-5,6-dihydroimidazo[2,1-a]isoquinoline-2-carboxamide], for which the pIC50 is 6.00 to 7.00.

As to `COc1cc2c(cc1OC)-c1cc(C(=O)N[C@@H](CO)Cc3c[nH]c4ccccc34)c(-c3ccccc3)n1CC2` [Example 5, (R)—N-(1-hydroxy-3-(1H-indol-3-yl)propan-2-yl)-8,9-dimethoxy-3-phenyl-5,6-dihydropyrrolo[2,1-a]isoquinoline-2-carboxamide], the pIC50 was over 7.00.

`COc1cc2c(c(OC)c1OC)-c1cc(C(=O)N[C@@H](CO)Cc3c[nH]c4ccccc34)c(-c3cccc(F)c3)n1CC2` [Example 65, (R)-3-(3-fluorophenyl)-N-(1-hydroxy-3-(1H-indol-3-yl)propan-2-yl)-8,9,10-trimethoxy-5,6-dihydropyrrolo[2,1-a]isoquinoline-2-carboxamide]: the pIC50 was over 7.00.

For `COc1cc2c(c(OC)c1OC)CCn1c-2cc(C(=O)N[C@@H](CO)Cc2c[nH]c3ccccc23)c1-c1cccs1` [Example 61, (R)—N-(1-hydroxy-3-(1H-indol-3-yl)propan-2-yl)-7,8,9-trimethoxy-3-(thiophen-2-yl)-5,6-dihydropyrrolo[2,1-a]isoquinoline-2-carboxamide], the pIC50 is over 7.00.

Consider `COc1cc2c(cc1OCCN(C)C)-c1cc(C(=O)N[C@@H](CO)Cc3c[nH]c4ccccc34)c(-c3cccc(F)c3)n1CC2` [Example 39, (R)-9-(2-(dimethylamino)ethoxy)-3-(3-fluorophenyl)-N-(1-hydroxy-3-(1H-indol-3-yl)propan-2-yl)-8-methoxy-5,6-dihydropyrrolo[2,1-a]isoquinoline-2-carboxamide], for which the pIC50 was 6.00 to 7.00.

`COc1cc2c(cc1OC(C)C)-c1cc(C(=O)N[C@@H](CO)Cc3c[nH]c4ccccc34)c(-c3cccc(Cl)c3)n1CC2` [Example 16, (R)-3-(3-chlorophenyl)-N-(1-hydroxy-3-(1H-indol-3-yl)propan-2-yl)-9-isopropoxy-8-methoxy-5,6-dihydropyrrolo[2,1-a]isoquinoline-2-carboxamide]: the pIC50 is over 7.00.

Take `COc1cc2c(cc1OC(C)C)-c1cc(C(=O)N[C@@H](CO)Cc3c[nH]c4ccccc34)c(C(=O)c3ccccc3)n1CC2` [Example 29, (R)-3-benzoyl-N-(1-hydroxy-3-(1H-indol-3-yl)propan-2-yl)-9-isopropoxy-8-methoxy-5,6-dihydropyrrolo[2,1-a]isoquinoline-2-carboxamide]: the pIC50 is over 7.00.

Take `COc1cc2c(cc1OCCO)-c1cc(C(=O)N[C@@H](CO)Cc3c[nH]c4ccccc34)c(-c3cccc(F)c3)n1CC2` [Example 38, (R)-3-(3-fluorophenyl)-N-(1-hydroxy-3-(1H-indol-3-yl)propan-2-yl)-9-(2-hydroxyethoxy)-8-methoxy-5,6-dihydropyrrolo[2,1-a]isoquinoline-2-carboxamide]: the pIC50 was over 7.00.

As to `COc1cc2c(cc1-c1cccnc1)-c1cc(C(=O)N[C@@H](CO)Cc3c[nH]c4ccccc34)c(-c3cccc(F)c3)n1CC2` [Example 42, (R)-3-(3-fluorophenyl)-N-(1-hydroxy-3-(1H-indol-3-yl)propan-2-yl)-8-methoxy-9-(pyridin-3-yl)-5,6-dihydropyrrolo[2,1-a]isoquinoline-2-carboxamide], the pIC50 was over 7.00.

For the compound `COc1cc2c(cc1OCC1CC1)-c1cc(C(=O)N[C@@H](CO)Cc3c[nH]c4ccccc34)c(-c3cccc(F)c3)n1CC2` [Example 36, (R)-9-(cyclopropylmethoxy)-3-(3-fluorophenyl)-N-(1-hydroxy-3-(1H-indol-3-yl)propan-2-yl)-8-methoxy-5,6-dihydropyrrolo[2,1-a]isoquinoline-2-carboxamide], the pIC50 was over 7.00.
